The target in test [1] is T1, Caspase 3 (Homo sapiens, UniProt P42574).
T1 sequence (P42574 29-175 limits assumed): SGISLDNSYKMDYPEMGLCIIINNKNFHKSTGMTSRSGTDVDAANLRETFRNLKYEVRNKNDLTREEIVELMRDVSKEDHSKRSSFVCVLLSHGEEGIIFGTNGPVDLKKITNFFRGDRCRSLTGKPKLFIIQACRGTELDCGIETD
T1 sequence (P42574 176-277 limits assumed): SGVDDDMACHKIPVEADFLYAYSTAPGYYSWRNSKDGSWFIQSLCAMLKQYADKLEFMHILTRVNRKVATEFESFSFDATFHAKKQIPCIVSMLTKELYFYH
Experimental: (§1) Caspase 3 screening assays were performed similar to the assays described by Okun et al. [61]. […] The direct fluorometric enzyme assay was performed in a 96 well plate which was read in a temperature-controlled plate reader equipped with a 400-nm excitation filter and 505-nm emission filter. The fluorescence was read every one minute for 60 minutes.
(§2) A volume of 1 μL of DMSO solution was added to 24 μL H2O to produce a final volume of 25 μL/well in a 96 well plate. A volume of 2.5 μL of the Active caspase 3 was added. 2) A positive inhibition control was prepared by adding 1 μL of the caspase 3 Inhibitor (Z-DEVD-FMK, provided in the kit) instead of the tested compounds. 3) The other positive inhibition control was prepared by adding 1 μL of the caspase 3/7 Inhibitor (Compound C2, purchased from ApexBio company A1925) instead of the tested compounds. 4) A negative inhibition control was prepared using pure DMSO without the inhibitor. A volume of 1 μL of pure DMSO to 24 μL H2O to a final volume of 25 μL/well. 5) Master Mix was prepared for each assay containing the follows: a. 22.5 μL 2× Reaction Buffer (containing 10 mM DTT). b. 2.5 μL of the 1 mM Ac-DEVD-AFC substrate (50 μM final concentration). 6) Master Mix was mixed well then 22.5 μL of the Master Mix was added quickly to each well to start the reaction. 7) Samples were read in Gemini EM fluorescence Microplate reader with a 400 nm excitation wavelength and 505 nm emission wavelength every 1 minute for duration of 1 hour at 37° C. 8) Data was exported in an Excel spread sheet format and processed to determine the % inhibition compared to the controls in each plate. The IC50 was calculated using Graphpad PRISM 7 software.
(§3) All designed compounds were screened at a fixed concentration of 10 PM.

Test [2] has as its target T1, Caspase 3. The test is described as follows: biochemical.
Experimental: as §1, §2, §3
In test [3] the target is T2, Caspase 7 (Homo sapiens, UniProt P55210).
T2 sequence (P55210 24-198 limits assumed): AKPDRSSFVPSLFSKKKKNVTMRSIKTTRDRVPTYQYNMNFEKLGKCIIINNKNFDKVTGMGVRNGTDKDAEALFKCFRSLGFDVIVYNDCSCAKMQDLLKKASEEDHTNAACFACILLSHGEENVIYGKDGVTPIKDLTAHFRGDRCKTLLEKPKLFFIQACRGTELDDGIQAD
T2 sequence (P55210 207-303 limits assumed): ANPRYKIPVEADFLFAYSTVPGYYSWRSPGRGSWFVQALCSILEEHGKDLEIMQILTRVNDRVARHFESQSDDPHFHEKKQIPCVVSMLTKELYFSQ
The test can be described thus: biochemical.

Test [4] deals with T3, Caspase 1 (Homo sapiens, UniProt P29466).
T3 construct: purchased Raybiotech Company 68FL-Casp1-S200
T3 sequence (P29466 120-297 limits assumed): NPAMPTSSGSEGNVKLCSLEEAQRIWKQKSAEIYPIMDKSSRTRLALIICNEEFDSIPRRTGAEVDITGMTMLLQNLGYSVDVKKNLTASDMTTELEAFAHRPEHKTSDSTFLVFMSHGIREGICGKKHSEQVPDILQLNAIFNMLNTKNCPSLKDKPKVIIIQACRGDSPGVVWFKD
T3 sequence (P29466 317-404 limits assumed): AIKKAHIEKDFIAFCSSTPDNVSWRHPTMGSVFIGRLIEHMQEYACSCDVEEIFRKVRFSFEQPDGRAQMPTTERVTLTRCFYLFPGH
The test is described as follows: Caspase 1 inhibitor screening and IC50 assay (direct fluorometric enzyme assay). It counts as biochemical. The conditions noted are these: calculated by Graphpad PRISM 7; read-out: IC50 (nM) against Caspase 1.
Experimental: Caspase 3 screening assays were performed similar to the assays described by Okun et al. [61]. The caspase 3 inhibitor drug screening kits were purchases from Raybiotech Company (Caspase 3: Item number is 68SR-Casp3S100), (Caspase 7: Item number is 68SR-Casp7-S100), and (Caspase 1: Item number is 68FL-Casp1-S200). The direct fluorometric enzyme assay was performed in a 96 well plate which was read in a temperature-controlled plate reader equipped with a 400-nm excitation filter and 505-nm emission filter. The fluorescence was read every one minute for 60 minutes.

We go through 9 compounds from patent publication US20240352012A1, “PAN-CASPASE INHIBITORS” (GEORGE MASON UNIVERSITY, priority 2023, published 2024).

A word on the inhibition: it is the change of the read-out against control, counted positive when it falls. A low value points to little suppression. In general, IC50 refers to the point on the concentration scale where inhibition reaches its midpoint.

With `Cc1cc(N2C(=O)c3c(C)nc4ccc(F)cc4c3C2=O)c2ccccc2n1` [Compound F4, 8-fluoro-4-methyl-2-(2-methylquinolin-4-yl)-1H,2H,3H-pyrrolo[3,4-c]quinoline-1,3-dione], the inhibition in test [1] is around 30%. On the same count and under the same terms, then `Cc1cc(N2C(=O)c3c(C)nc4ccccc4c3C2=O)c2ccccc2n1` [Compound H4, 4-methyl-2-(2-methylquinolin-4-yl)-1H,2H,3H-pyrrolo[3,4-c]quinoline-1,3-dione], with around 30%. Compound `Cc1nc2ccccc2c2c1C(=O)N(c1ccc(I)cc1)C2=O` [Compound H11, 2-(4-iodophenyl)-4-methyl-1H,2H,3H-pyrrolo[3,4-c]quinoline-1,3-dione] yielded an inhibition in test [1] of around 25%. `Cc1ccc(N2C(=O)c3c(C)nc4ccccc4c3C2=O)cc1` [Compound H13, 4-methyl-2-(4-methylphenyl)-1H,2H,3H-pyrrolo[3,4-c]quinoline-1,3-dione] gave an inhibition in test [1] of around 25%. Take `Cc1cc(N2C(=O)c3c(C)nc4ccc(S(=O)(=O)N5CCOCC5)cc4c3C2=O)c2ccccc2n1` [MO4, 4-methyl-2-(2-methylquinolin-4-yl)-8-(morpholine-4-sulfonyl)-1H,2H,3H-pyrrolo[3,4c]quinoline-1,3-dione]: the IC50 in test [2] is 742 nM; in test [3], 35.2 nM; in test [4] it was 178 nM. In test [2], `Cc1nc2ccc(S(=O)(=O)N3CCOCC3)cc2c2c1C(=O)N(c1ccc(I)cc1)C2=O` [MO11, 2-(4-iodophenyl)-4-methyl-8-(morpholine-4-sulfonyl)-1H,2H,3H-pyrrolo[3,4-c]quinoline1,3-dione] had an IC50 of 100 to 300 nM.

Turning to `Cc1ccc(N2C(=O)c3c(C)nc4ccc(S(=O)(=O)N5CCOCC5)cc4c3C2=O)cc1` [MO13, 4-methyl-2-(4-methylphenyl)-8-(morpholine-4-sulfonyl)-1H,2H,3H-pyrrolo[3,4-c]quinoline1,3-dione], the IC50 in test [2] is 164 nM; in test [3], 145 nM; in test [4], 361 nM.

On to `C#Cc1cccc(N2C(=O)c3c(C)nc4ccc(S(=O)(=O)N5CCCCC5)cc4c3C2=O)c1` [PE5, 2-(3-ethynylphenyl)-4-methyl-8-(piperidine-1-sulfonyl)-1H,2H,3H-pyrrolo[3,4-c]quinoline1,3-dione], for which the IC50 is 785 nM in test [2], 408 nM in test [3] and 261 nM in test [4]. Compound `Cc1nc2ccc(S(=O)(=O)N3CCCC3)cc2c2c(=O)n(-c3ccccc3)[nH]c(=O)c12` [PY6B, 5-methyl-2-phenyl-9-(pyrrolidine-1-sulfonyl)-1H,2H,3H,4H-pyridazino[4,5-c]quinoline-1,4dione] registered an IC50 in test [2] of around 4000 nM.
